Source: patent US10301280B2 (Plexxikon Inc., priority 2012, dated 2019)

system: BaF3-FL KIT D816V or BaF3-FL KIT V560G/D816V cell line; test: Cell-based assays of c-Kit mutant kinase activity (cell growth, ATPlite); conditions: at least one of the c-kit cell assays of Example 26
Outline: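 IC50 derived from ATP-content luminescence (ATPlite) after three-day compound exposure at 37° C., 5% CO2. Cells: BaF3 rendered growth-dependent on full-length human KIT D816V or V560G/D816V, 1×10^4 per well, RPMI plus 10% FBS; 8 points, 1:3 steps, maximum 10 μM final, 0.2% DMSO.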

IC50 [µM] | Compound
< 10 | Cc1[nH]nc(C(=O)Nc2cnc3[nH]c(-c4ccnc(N5CCCC(O)C5)c4)cc3c2)c1C (centres unmarked) [P-2213, N-(2-(2-(3-hydroxypiperidin-1-yl)pyridin-4-yl)-1H-pyrrolo[2,3-b]pyridin-5-yl)-4,5-dimethyl-1H-pyrazole-3-carboxamide]
< 10 | CC(C)=CC(=O)N1CCN(c2cc(-c3cc4cc(NC(=O)c5n[nH]c(C)c5C)cnc4[nH]3)ccn2)CC1 [P-2215, 4,5-dimethyl-N-(2-(2-(4-(3-methylbut-2-enoyl)piperazin-1-yl)pyridin-4-yl)-1H-pyrrolo[2,3-b]pyridin-5-yl)-1H-pyrazole-3-carboxamide]
< 10 | Cc1[nH]nc(C(=O)Nc2cnc3[nH]c(-c4ccnc(C(=O)N5CCOCC5)c4)cc3c2)c1C [P-2216, 4,5-dimethyl-N-(2-(2-(morpholine-4-carbonyl)pyridin-4-yl)-1H-pyrrolo[2,3-b]pyridin-5-yl)-1H-pyrazole-3-carboxamide]
< 10 | Cc1[nH]nc(C(=O)Nc2cnc3[nH]c(-c4ccnc(C(=O)N5CCCC5)c4)cc3c2)c1C [P-2218, 4,5-dimethyl-N-(2-(2-(pyrrolidine-1-carbonyl)pyridin-4-yl)-1H-pyrrolo[2,3-b]pyridin-5-yl)-1H-pyrazole-3-carboxamide]
< 10 | COCCNC(=O)c1cc(-c2cc3cc(NC(=O)c4n[nH]c(C)c4C)cnc3[nH]2)ccn1 [P-2220, 4-(5-(4,5-dimethyl-1H-pyrazole-3-carboxamido)-1H-pyrrolo[2,3-b]pyridin-2-yl)-N-(2-methoxyethyl)picolinamide]
< 10 | Cc1[nH]nc(C(=O)Nc2cnc3[nH]c(-c4ccnc(C(=O)N(C)C)c4)cc3c2)c1C [P-2224, 4-(5-(4,5-dimethyl-1H-pyrazole-3-carboxamido)-1H-pyrrolo[2,3-b]pyridin-2-yl)-N,N-dimethylpicolinamide]
< 10 | Cc1[nH]nc(C(=O)Nc2cnc3[nH]c(-c4ccnc(C(=O)NCCN5CCOCC5)c4)cc3c2)c1C [P-2225, 4-(5-(4,5-dimethyl-1H-pyrazole-3-carboxamido)-1H-pyrrolo[2,3-b]pyridin-2-yl)-N-(2-morpholinoethyl)picolinamide]
< 10 | Cc1[nH]nc(C(=O)Nc2cnc3[nH]c(-c4ccnc(C(=O)NCCN5CCN(C)CC5)c4)cc3c2)c1C [P-2226, 4-(5-(4,5-dimethyl-1H-pyrazole-3-carboxamido)-1H-pyrrolo[2,3-b]pyridin-2-yl)-N-(2-(4-methylpiperazin-1-yl)ethyl)picolinamide]
< 10 | Cc1[nH]nc(C(=O)Nc2cnc3[nH]c(-c4ccnc(C(=O)NCCC#N)c4)cc3c2)c1C [P-2227, N-(2-cyanoethyl)-4-(5-(4,5-dimethyl-1H-pyrazole-3-carboxamido)-1H-pyrrolo[2,3-b]pyridin-2-yl)picolinamide]
< 10 | Cc1c(C(=O)Nc2cnc3[nH]c(-c4ccccc4)cc3c2)n[nH]c1C(F)(F)F [P-2231, 4-methyl-N-(2-phenyl-1H-pyrrolo[2,3-b]pyridin-5-yl)-5-(trifluoromethyl)-1H-pyrazole-3-carboxamide]
< 10 | O=C(Nc1cnc2[nH]c(-c3ccccc3)cc2c1)c1n[nH]c(C(F)(F)F)c1Cl [P-2232, 4-chloro-N-(2-phenyl-1H-pyrrolo[2,3-b]pyridin-5-yl)-5-(trifluoromethyl)-1H-pyrazole-3-carboxamide]
< 10 | O=C(Nc1cnc2[nH]c(-c3ccccc3)cc2c1)c1n[nH]c(Cl)c1C(F)(F)F [P-2233, 5-chloro-N-(2-phenyl-1H-pyrrolo[2,3-b]pyridin-5-yl)-4-(trifluoromethyl)-1H-pyrazole-3-carboxamide]
< 10 | Cc1c(C(=O)Nc2cnc3[nH]c(-c4ccccc4)cc3c2)n[nH]c1C(F)F [P-2234, 5-(difluoromethyl)-4-methyl-N-(2-phenyl-1H-pyrrolo[2,3-b]pyridin-5-yl)-1H-pyrazole-3-carboxamide]
< 10 | O=C(Nc1cnc2[nH]c(-c3ccccc3)cc2c1)c1n[nH]c(Cl)c1C(F)F [P-2236, 5-chloro-4-(difluoromethyl)-N-(2-phenyl-1H-pyrrolo[2,3-b]pyridin-5-yl)-1H-pyrazole-3-carboxamide]
< 10 | COc1ncccc1-c1cc2cc(NC(=O)c3n[nH]c(C)c3C)cnc2[nH]1 [P-2238, N-(2-(2-methoxypyridin-3-yl)-1H-pyrrolo[2,3-b]pyridin-5-yl)-4,5-dimethyl-1H-pyrazole-3-carboxamide]
< 10 | CCOc1ncccc1-c1cc2cc(NC(=O)c3n[nH]c(C)c3C)cnc2[nH]1 [P-2239, N-(2-(2-ethoxypyridin-3-yl)-1H-pyrrolo[2,3-b]pyridin-5-yl)-4,5-dimethyl-1H-pyrazole-3-carboxamide]
< 10 | Cc1[nH]nc(C(=O)Nc2cnc3[nH]c(-c4cccnc4OC(F)F)cc3c2)c1C [P-2240, N-(2-(2-(difluoromethoxy)pyridin-3-yl)-1H-pyrrolo[2,3-b]pyridin-5-yl)-4,5-dimethyl-1H-pyrazole-3-carboxamide]
< 10 | Cc1[nH]nc(C(=O)Nc2cnc3[nH]c(-c4cncc(C5CC5)c4)cc3c2)c1C [P-2243, N-(2-(5-cyclopropylpyridin-3-yl)-1H-pyrrolo[2,3-b]pyridin-5-yl)-4,5-dimethyl-1H-pyrazole-3-carboxamide]
< 10 | Cc1cc(-c2cc3cc(NC(=O)c4n[nH]c(C)c4C)cnc3[nH]2)cnc1C [P-2244, N-(2-(5,6-dimethylpyridin-3-yl)-H-pyrrolo[2,3-b]pyridin-5-yl)-4,5-dimethyl-1H-pyrazole-3-carboxamide]
< 10 | CCOc1cc(-c2cc3cc(NC(=O)c4n[nH]c(C)c4C)cnc3[nH]2)ccn1 [P-2247, N-(2-(2-ethoxypyridin-4-yl)-1H-pyrrolo[2,3-b]pyridin-5-yl)-4,5-dimethyl-1H-pyrazole-3-carboxamide]

More lines, now with the values behind:

Compound | IC50 [µM]
CC(=O)N1CCN(c2cc(-c3cc4cc(NC(=O)c5n[nH]c(C)c5C)cnc4[nH]3)ccn2)CC1 [P-2214, N-(2-(2-(4-acetylpiperazin-1-yl)pyridin-4-yl)-1H-pyrrolo[2,3-b]pyridin-5-yl)-4,5-dimethyl-1H-pyrazole-3-carboxamide] | < 10
Cc1[nH]nc(C(=O)Nc2cnc3[nH]c(-c4ccnc(C(=O)N5CCN(C)CC5)c4)cc3c2)c1C [P-2217, 4,5-dimethyl-N-(2-(2-(4-methylpiperazine-1-carbonyl)pyridin-4-yl)-1H-pyrrolo[2,3-b]pyridin-5-yl)-1H-pyrazole-3-carboxamide] | < 10
Cc1[nH]nc(C(=O)Nc2cnc3[nH]c(-c4ccnc(C(=O)N5CCSCC5)c4)cc3c2)c1C [P-2219, 4,5-dimethyl-N-(2-(2-(thiomorpholine-4-carbonyl)pyridin-4-yl)-1H-pyrrolo[2,3-b]pyridin-5-yl)-1H-pyrazole-3-carboxamide] | < 10
Cc1[nH]nc(C(=O)Nc2cnc3[nH]c(-c4ccnc(C(=O)NCCN(C)C)c4)cc3c2)c1C [P-2221, 4-(5-(4,5-dimethyl-1H-pyrazole-3-carboxamido)-1H-pyrrolo[2,3-b]pyridin-2-yl)-N-(2-(dimethylamino)ethyl)picolinamide] | < 10
CONC(=O)c1cc(-c2cc3cc(NC(=O)c4n[nH]c(C)c4C)cnc3[nH]2)ccn1 [P-2223, 4-(5-(4,5-dimethyl-1H-pyrazole-3-carboxamido)-1H-pyrrolo[2,3-b]pyridin-2-yl)-N-methoxypicolinamide] | < 10
Cc1[nH]nc(C(=O)Nc2cnc3[nH]c(-c4ccnc(C(=O)NCC(C)C)c4)cc3c2)c1C [P-2228, 4-(5-(4,5-dimethyl-1H-pyrazole-3-carboxamido)-1H-pyrrolo[2,3-b]pyridin-2-yl)-N-isobutylpicolinamide] | < 10
Cc1[nH]nc(C(=O)Nc2cnc3[nH]c(-c4ccnc(C(=O)NC(C)C)c4)cc3c2)c1C [P-2229, 4-(5-(4,5-dimethyl-1H-pyrazole-3-carboxamido)-1H-pyrrolo[2,3-b]pyridin-2-yl)-N-isopropylpicolinamide] | < 10
CCN(CC)C(=O)c1cc(-c2cc3cc(NC(=O)c4n[nH]c(C)c4C)cnc3[nH]2)ccn1 [P-2230, 4-(5-(4,5-dimethyl-1H-pyrazole-3-carboxamido)-1H-pyrrolo[2,3-b]pyridin-2-yl)-N,N-diethylpicolinamide] | < 10
Cc1[nH]nc(C(=O)Nc2cnc3[nH]c(-c4ccccc4)cc3c2)c1C(F)F [P-2235, 4-(difluoromethyl)-5-methyl-N-(2-phenyl-1H-pyrrolo[2,3-b]pyridin-5-yl)-1H-pyrazole-3-carboxamide] | < 10
O=C(Nc1cnc2[nH]c(-c3ccccc3)cc2c1)c1n[nH]c(C(F)F)c1Cl [P-2237, 4-chloro-5-(difluoromethyl)-N-(2-phenyl-1H-pyrrolo[2,3-b]pyridin-5-yl)-1H-pyrazole-3-carboxamide] | < 10
Cc1[nH]nc(C(=O)Nc2cnc3[nH]c(-c4cccnc4C(F)(F)F)cc3c2)c1C [P-2241, 4,5-dimethyl-N-(2-(2-(trifluoromethyl)pyridin-3-yl)-1H-pyrrolo[2,3-b]pyridin-5-yl)-1H-pyrazole-3-carboxamide] | < 10
COc1ccc(-c2cc3cc(NC(=O)c4n[nH]c(C)c4C)cnc3[nH]2)c(OC)n1 [P-2242, N-(2-(2,6-dimethoxypyridin-3-yl)-1H-pyrrolo[2,3-b]pyridin-5-yl)-4,5-dimethyl-1H-pyrazole-3-carboxamide] | < 10
Cc1[nH]nc(C(=O)Nc2cnc3[nH]c(-c4ccnc(F)c4)cc3c2)c1C [P-2245, N-(2-(2-fluoropyridin-4-yl)-1H-pyrrolo[2,3-b]pyridin-5-yl)-4,5-dimethyl-1H-pyrazole-3-carboxamide] | < 10
Cc1cc(-c2cc3cc(NC(=O)c4n[nH]c(C)c4C)cnc3[nH]2)ccn1 [P-2246, 4,5-dimethyl-N-(2-(2-methylpyridin-4-yl)-1H-pyrrolo[2,3-b]pyridin-5-yl)-1H-pyrazole-3-carboxamide] | < 10
Cc1[nH]nc(C(=O)Nc2cnc3[nH]c(-c4ccnc(OC(C)C)c4)cc3c2)c1C [P-2248, N-(2-(2-isopropoxypyridin-4-yl)-1H-pyrrolo[2,3-b]pyridin-5-yl)-4,5-dimethyl-1H-pyrazole-3-carboxamide] | < 10
